From patent US5780505A, “Substituted N-arylmethylamino derivatives of cyclobutene-3, 4-diones” (American Home Products Corporation, priority 1997, dated 1998)

Test system: Isolated Rat Bladder Strips
Test: Inhibition of contractions in isolated rat bladder strips (KCl-enhanced contractile activity; smooth muscle relaxation)
Type: cell-based, Sprague-Dawley rats
Conditions: for IC50 / percent contraction at 30 µM: 0.5 h; for IC50: isolated rat bladder strips, 15 mM additional KCl, 30 minute challenge, read-out: IC50 (50% inhibition of pre-drug contractile activity); for percent contraction at 30 µM / inhibition at 30 µM: Rattus norvegicus; for percent contraction at 30 µM: read-out: Percent contraction at 30 μM (C); for inhibition at 30 µM: read-out: Percent inhibition at 30 μM (I)
Text: The smooth muscle relaxing activity of the compounds of this invention was established in accordance with standard pharmaceutically accepted test procedures with representative compounds as follows:
Sprague-Dawley rats (150-200 g) are rendered unconscious by CO2 asphyxiation and then euthanized by cervical dislocation. The bladder is removed into warm (37 deg.C) physiological salt solution (PSS) of the following composition (mM): NaCl, 118.4; KCl, 4.7; CaCl2, 2.5; MgSO4, 4.7; H2 O, 1,2; NaHCO3, 24.9; KH2 PO4, 1,2; glucose, 11.1; EDTA, 0.023; gassed with […]; pH 7.4. The bladder is opened and then dut into strips 1-2 mm in width and 7-10 mm in length. The strips are subsequently suspended in a 10 mL tissue bath under an initial resting tension of 1.5 g. The strips are held in place by two surgical clips one of which is attached to a fixed hook while the other is attached to an isometric force transducer. […] The carbachol is then washed out and the tissue allowed to relax to its resting level of activity. Following a further 30 min period of recovery an additional 15 mM KCl are introduced into the tissue bath. This increase in KCl concentration results in a large increase in the amplitude of spontaneous contractions (and initiation of contractions in previously quiescent strips) superimposed upon a small increase in basal tone. Following stabilization of this enhanced level of contractile activity, incremental increases in the concentration of test compound or vehicle are introduced into the tissue bath. Contractile activity is measured for each compound or vehicle concentration during the last minute of a 30 minute challenge.
The isometric force developed by the bladder strips is measured using a […] to elicit 50% inhibition of pre-drug contractile activity (IC50 concentration) and is calculated from this concentration-response curve.

Structure (SMILES): CCc1cc(C#N)ccc1CNc1c(NC(C)(C)CC)c(=O)c1=O [Example 50, 4-[(1,1-Dimethyl-propylamino-3,4-dioxo-cyclobut-1-enylamino)-methyl]-3-ethyl-benzonitrile]
- IC50: 0.105 ± 0.005 µM

Structure (SMILES): Cc1cccc(C)c1CNc1c(N[C@H](C)C(C)(C)C)c(=O)c1=O [Example 51, 3-(2,6-Dimethyl-benzylamino)-4-(1,2,2-trimethyl-propylamino)-cyclobut-3-ene-1,2-dione]
- IC50: 5.6 µM
- percent contraction at 30 µM: 22 ± 3.2%
- inhibition at 30 µM: 44%

Structure (SMILES): Cc1cccc(C)c1CNc1c(NC(C)(C)C)c(=O)c1=O [Example 52, 3-tert-Butylamino-4-(2,6-dimethyl-benzylamino)-cyclobut-3-ene-1,2-dione]
- IC50: 5.9 ± 1.8 µM

Structure (SMILES): CCC(C)(C)Nc1c(NCc2c(C)cccc2C)c(=O)c1=O [Example 53, 3-(2,6-Dimethyl-benzylamino)-4-(1,1-dimethyl-propylamino)-cyclobut-3-ene-1,2-dione]
- IC50: 0.83 ± 0.66 µM

Structure (SMILES): Cc1cccc(C)c1CNc1c(NCC(F)(F)C(F)(F)F)c(=O)c1=O [Example 54, 3-(2,6-Dimethyl-benzylamino)-4-(2,2,3,3,3-pentafluoro-propylamino)-cyclobut-3-ene-1,2-dione]
- IC50: 17.8 µM
- inhibition at 30 µM: 46%

Structure (SMILES): Cc1cc(C#N)ccc1CNc1c(N[C@H](C)C(C)(C)C)c(=O)c1=O [Example 55, 4-{[3,4-Dioxo-2-(1,2,2-trimethyl-propylamino)-cyclobut-1-enylamino]-methyl}-3-methyl-benzonitrile]
- IC50: 1.5 ± 0.4 µM

Structure (SMILES): COc1cc(C#N)ccc1CNc1c(N[C@H](C)C(C)(C)C)c(=O)c1=O [Example 56, 4-{[3,4-Dioxo-2-(1,2,2-trimethyl-propylamino)-cyclobut-1-enylamino]-methyl}-3-methoxy-benzonitrile]
- IC50: 0.95 ± 0.75 µM

Structure (SMILES): COc1cccc(C)c1CNc1c(N[C@H](C)C(C)(C)C)c(=O)c1=O [Example 57, 3-(2-Methoxy-6-methyl-benzylamino)-4-(1,2,2-trimethyl-propylamino)-cyclobut-3-ene-1,2-dione]
- percent contraction at 30 µM: 160%
- inhibition at 30 µM: 29.3 ± 2.3%

Structure (SMILES): CCc1cccc(C)c1CNc1c(NC(C)(C)C)c(=O)c1=O [Example 58, 3-tert-Butylamino-4-(2-ethyl-6-methyl-benzylamino)-cyclobut-3-ene-1,2-dione]
- IC50: 2.3 ± 0.24 µM
- inhibition at 30 µM: 25%

Structure (SMILES): CC(C)(C)Nc1c(NCc2ccc(F)cc2C(F)(F)F)c(=O)c1=O [Example 59, 3-tert-Butylamino-4-(4-fluoro-2-trifluoromethyl-benzylamino)-cyclobut-3-ene-1,2-dione]
- IC50: 1.8 ± 0.6 µM

Structure (SMILES): CC(C)(C)Nc1c(NCc2ccc(F)cc2Cl)c(=O)c1=O [Example 60, 3-tert-Butylamino-4-(2-chloro-4-fluoro-benzylamino)-cyclobut-3-ene-1,2-dione]
- IC50: 1.4 ± 0.4 µM

Structure (SMILES): C[C@@H](Nc1c(NCc2ccc(F)cc2C(F)(F)F)c(=O)c1=O)C(C)(C)C [Example 61, 3-(4-Fluoro-2-trifluoromethyl-benzylamino)-4-(1,2,2-trimethyl-propylamino)-cyclobut-3-ene-1,2-dione]
- IC50: 1.7 ± 1 µM

Structure (SMILES): CCC(C)(C)Nc1c(NCc2ccc(F)cc2F)c(=O)c1=O [Example 62, 3-(2,4-Difluoro-benzylamino)-4-(1,1-dimethyl-propylamino)-cyclobut-3-ene-1,2-dione]
- IC50: 0.22 ± 0.04 µM

Structure (SMILES): CCC(C)(C)Nc1c(NCc2ccc(F)cc2Cl)c(=O)c1=O [Example 63, 3-(2-Chloro-4-fluoro-benzylamino)-4-(1,1-dimethyl-propylamino)-cyclobut-3-ene-1,2-dione]
- IC50: 1.5 ± 1 µM

Structure (SMILES): CC(C)(C)Nc1c(NCc2cc(C(F)(F)F)ccc2F)c(=O)c1=O [Example 64, 3-tert-Butylamino-4-(2-fluoro-5-trifluoromethyl-benzylamino)-cyclobut-3-ene-1,2-dione]
- IC50: 4.9 ± 2.7 µM

Structure (SMILES): C[C@@H](Nc1c(NCc2cc(F)ccc2Cl)c(=O)c1=O)C(C)(C)C [Example 65, 3-(2-Chloro-5-fluoro-benzylamino)-4-(1,2,2-trimethyl-propylamino)-cyclobut-3-ene-1,2-dione]
- IC50: 0.85 ± 0.41 µM

Structure (SMILES): C[C@@H](Nc1c(NCc2cc(F)ccc2F)c(=O)c1=O)C(C)(C)C [Example 66, 3-(2.5-Difluoro-benzylamino)-4-(1,2,2-trimethyl-propylamino)-cyclobut-3-ene-1,2-dione]
- IC50: 0.98 ± 0.4 µM

Structure (SMILES): CC(C)(C)Nc1c(NCc2ccc(F)c(Cl)c2)c(=O)c1=O [Example 67, 3-tert-Butylamino-4-(3-chloro-4-fluoro-benzylamino)-cyclobut-3-ene-1,2-dione]
- IC50: 5.3 ± 1.2 µM
- inhibition at 30 µM: 47.7%

Structure (SMILES): CC(C)(C)Nc1c(NCc2ccc(F)c(F)c2)c(=O)c1=O [Example 68, 3-tert-Butylamino-4-(3,4-difluoro-benzylamino)-cyclobut-3-ene-1,2-dione]
- IC50: 2.2 ± 0.8 µM

Structure (SMILES): C[C@@H](Nc1c(NCc2ccc(F)c(Cl)c2)c(=O)c1=O)C(C)(C)C [Example 69, 3-(3-Chloro-4-fluoro-benzylamino)-4-(1,2,2-trimethyl-propylamino)-cyclobut-3-ene-1,2-dione]
- IC50: 5.4 ± 2.1 µM

Structure (SMILES): CCC(C)(C)Nc1c(NCc2ccc(F)c(F)c2)c(=O)c1=O [Example 70, 3-(3,4-Difluoro-benzylamino)-4-(1,1-dimethyl-propylamino)-cyclobut-3-ene-1,2-dione]
- IC50: 1.6 ± 0.77 µM

Structure (SMILES): CC(C)(C)Nc1c(NCc2cc(F)cc(F)c2)c(=O)c1=O [Example 71, 3-tert-Butyl amino-4-(3,5-difluoro-benzylamino)-cyclobut-3-ene-1,2-dione]
- IC50: 2.6 ± 0.4 µM

Structure (SMILES): CC(C)(C)Nc1c(NCc2cc(F)cc(C(F)(F)F)c2)c(=O)c1=O [Example 72, 3-tert-Butylamino-4-(3-fluoro-5-trifluoromethyl-benzylamino)-cyclobut-3-ene-1,2-dione]
- IC50: 6.5 ± 3.6 µM

Structure (SMILES): CC(C)(C)Nc1c(NCc2cc(C(F)(F)F)cc(C(F)(F)F)c2)c(=O)c1=O [Example 73, 3-(3.5-Bis-trifluoromethyl-benzylamino)-4-tert-butylamino-cyclobut-3-ene-1,2-dione]
- IC50: 23.5 ± 8.1 µM
- inhibition at 30 µM: 35.8 ± 4.9%

Structure (SMILES): CCC(C)(C)Nc1c(NCc2cc(F)cc(F)c2)c(=O)c1=O [Example 74, 3-(3,5-Difluoro-benzylamino)-4-(1,1-dimethyl-propylamino)-cyclobut-3-ene-1,2-dione]
- IC50: 0.75 ± 0.45 µM

Structure (SMILES): CC(Nc1c(NCc2ccc(C#N)cc2Cl)c(=O)c1=O)C(C)(C)F (stereo not shown) [Example 75, 3-Chloro-4-{[2-(2-fluoro-1,2-dimethyl-propylamino)-3,4-dioxo-cyclobut-1-enylamino]-methyl)-benzonitrile]
- IC50: 1.59 ± 0.27 µM

Structure (SMILES): CCC(C)(C)Nc1c(N(Cc2ccc(C#N)cc2Cl)C(C)=O)c(=O)c1=O [Example 77, N-(2-Chloro-4-cyano-benzyl)-N-[2-(1,1-dimethyl-propylamino)-3,4-dioxo-cyclobut-1-enyl)-acetamide]
- IC50: 2.2 ± 0.95 µM
- inhibition at 30 µM: 25%

Structure (SMILES): CCCC(=O)N(Cc1ccc(C#N)cc1Cl)c1c(NC(C)(C)CC)c(=O)c1=O [Example 78]
- IC50: 2.8 ± 1.3 µM
- percent contraction at 30 µM: 28.5 ± 8.7%
- inhibition at 30 µM: 18 ± 6.5%

Structure (SMILES): CCC(C)(C)Nc1c(NCc2ccc(C)cc2C)c(=O)c1=O [Example 79, 3-(2.4-Dimethyl-benzylamino)-4-(1,1-dimethyl-propylamino)-cyclobut-3-ene-1,2-dione]
- IC50: 0.53 ± 0.23 µM

Structure (SMILES): CCC(C)(C)Nc1c(NCc2cccc(C)c2C)c(=O)c1=O [Example 80, 3-(2,3-Dimethyl-benzylamino)-4-(1,1-dimethyl-propylamino)-cyclobut-3-ene-1,2-dione]
- IC50: 5 ± 3.5 µM
